Tests used:
[1] = molecular target: Sodium channel protein type 9 subunit alpha (Homo sapiens, UniProt Q15858); assay: Inhibition of human Nav1.7 by VIPR assay
Rattus norvegicus [2] = assay: Antiallodynic activity in rat spinal nerve ligation model of neuropathic pain assessed as reversal of allodynia at 30 mg/kg, po after 4 hrs; assay type: functional
Plasma [3] = assay: Plasma concentration in dog at 10 mg/kg, iv; assay type: ADME, organism-based, Canis lupus familiaris; parameters: dose 10 mg/kg, route intravenous; conditions: in vivo
Canis familiaris [4] = assay: Cardiotoxicity in anesthetized dog assessed as effect on QRS interval at 10 mg/kg, iv; assay type: toxicity, organism-based, Canis lupus familiaris; parameters: dose 10 mg/kg, route intravenous; conditions: in vivo
Mus musculus [5] = assay: Neurotoxicity in conscious mouse assessed as effect on motor activity at 100 mg/kg after 24 hrs; assay type: toxicity, organism-based; parameters: dose 100 mg/kg; conditions: in vivo
Rattus norvegicus [6] = assay: Antiallodynic activity in rat spinal nerve ligation model of neuropathic pain assessed as reversal of allodynia at 3 mg/kg, po after 4 hrs; assay type: functional
Canis familiaris [7] = assay: Cardiotoxicity in anesthetized dog assessed as effect on heart rate at 10 mg/kg, iv; assay type: toxicity, organism-based, Canis lupus familiaris; parameters: dose 10 mg/kg, route intravenous; conditions: in vivo
Canis familiaris [8] = assay: Cardiotoxicity in anesthetized dog assessed as effect on heart rate at 1 mg/kg, iv; assay type: toxicity, organism-based, Canis lupus familiaris; parameters: dose 1 mg/kg, route intravenous; conditions: in vivo
[9] = Metabolic stability in human liver microsomes assessed as compound remaining after 60 mins in presence of 10 uM substrate; assay type: ADME, Microsome; conditions: read-out: Stability
[10] = Half life in rat at 1 mg/kg, iv and 3 mg/kg, po; assay type: ADME, organism-based; conditions: in vivo
Plasma [11] = assay: Plasma concentration in dog at 1 mg/kg, iv; assay type: ADME, organism-based, Canis lupus familiaris; parameters: dose 1 mg/kg, route intravenous; conditions: in vivo
Canis familiaris [12] = assay: Cardiotoxicity in anesthetized dog assessed as effect on QTc interval at 3 mg/kg, iv; assay type: toxicity, organism-based, Canis lupus familiaris; parameters: dose 3 mg/kg, route intravenous; conditions: in vivo
Mus musculus [13] = assay: Neurotoxicity in conscious mouse assessed as effect on motor activity at 100 mg/kg after 2 hrs; assay type: toxicity, organism-based; parameters: dose 100 mg/kg; conditions: in vivo
Rattus norvegicus [14] = assay: Neurotoxicity in rat assessed as effect on motor coordination at 30 mg/kg, po by rotarod test (reference value: 18%); assay type: toxicity, organism-based; parameters: dose 30 mg/kg, route oral; conditions: in vivo
Mus musculus [15] = assay: Neurotoxicity in conscious mouse assessed as effect on body temperature at 100 mg/kg after 5 hrs; assay type: toxicity, organism-based; parameters: dose 100 mg/kg; conditions: in vivo
[16] = Plasma concentration in rat 30 to 100 mg/kg, po after 3.5 hrs; assay type: ADME, organism-based; parameters: dose 30-100 mg/kg, route oral
Plasma [17] = assay: Plasma concentration in dog at 3 mg/kg, iv; assay type: ADME, organism-based, Canis lupus familiaris; parameters: dose 3 mg/kg, route intravenous; conditions: in vivo
Canis familiaris [18] = assay: Cardiotoxicity in anesthetized dog assessed as effect on heart rate at 3 mg/kg, iv; assay type: toxicity, organism-based, Canis lupus familiaris; parameters: dose 3 mg/kg, route intravenous; conditions: in vivo
[19] = AUC in dog at 60 mg/kg, po; assay type: ADME, organism-based, Canis lupus familiaris; parameters: dose 60 mg/kg, route oral; conditions: plasma

Sodium channel protein type 9 subunit alpha, sequence (Q15858 whole entry): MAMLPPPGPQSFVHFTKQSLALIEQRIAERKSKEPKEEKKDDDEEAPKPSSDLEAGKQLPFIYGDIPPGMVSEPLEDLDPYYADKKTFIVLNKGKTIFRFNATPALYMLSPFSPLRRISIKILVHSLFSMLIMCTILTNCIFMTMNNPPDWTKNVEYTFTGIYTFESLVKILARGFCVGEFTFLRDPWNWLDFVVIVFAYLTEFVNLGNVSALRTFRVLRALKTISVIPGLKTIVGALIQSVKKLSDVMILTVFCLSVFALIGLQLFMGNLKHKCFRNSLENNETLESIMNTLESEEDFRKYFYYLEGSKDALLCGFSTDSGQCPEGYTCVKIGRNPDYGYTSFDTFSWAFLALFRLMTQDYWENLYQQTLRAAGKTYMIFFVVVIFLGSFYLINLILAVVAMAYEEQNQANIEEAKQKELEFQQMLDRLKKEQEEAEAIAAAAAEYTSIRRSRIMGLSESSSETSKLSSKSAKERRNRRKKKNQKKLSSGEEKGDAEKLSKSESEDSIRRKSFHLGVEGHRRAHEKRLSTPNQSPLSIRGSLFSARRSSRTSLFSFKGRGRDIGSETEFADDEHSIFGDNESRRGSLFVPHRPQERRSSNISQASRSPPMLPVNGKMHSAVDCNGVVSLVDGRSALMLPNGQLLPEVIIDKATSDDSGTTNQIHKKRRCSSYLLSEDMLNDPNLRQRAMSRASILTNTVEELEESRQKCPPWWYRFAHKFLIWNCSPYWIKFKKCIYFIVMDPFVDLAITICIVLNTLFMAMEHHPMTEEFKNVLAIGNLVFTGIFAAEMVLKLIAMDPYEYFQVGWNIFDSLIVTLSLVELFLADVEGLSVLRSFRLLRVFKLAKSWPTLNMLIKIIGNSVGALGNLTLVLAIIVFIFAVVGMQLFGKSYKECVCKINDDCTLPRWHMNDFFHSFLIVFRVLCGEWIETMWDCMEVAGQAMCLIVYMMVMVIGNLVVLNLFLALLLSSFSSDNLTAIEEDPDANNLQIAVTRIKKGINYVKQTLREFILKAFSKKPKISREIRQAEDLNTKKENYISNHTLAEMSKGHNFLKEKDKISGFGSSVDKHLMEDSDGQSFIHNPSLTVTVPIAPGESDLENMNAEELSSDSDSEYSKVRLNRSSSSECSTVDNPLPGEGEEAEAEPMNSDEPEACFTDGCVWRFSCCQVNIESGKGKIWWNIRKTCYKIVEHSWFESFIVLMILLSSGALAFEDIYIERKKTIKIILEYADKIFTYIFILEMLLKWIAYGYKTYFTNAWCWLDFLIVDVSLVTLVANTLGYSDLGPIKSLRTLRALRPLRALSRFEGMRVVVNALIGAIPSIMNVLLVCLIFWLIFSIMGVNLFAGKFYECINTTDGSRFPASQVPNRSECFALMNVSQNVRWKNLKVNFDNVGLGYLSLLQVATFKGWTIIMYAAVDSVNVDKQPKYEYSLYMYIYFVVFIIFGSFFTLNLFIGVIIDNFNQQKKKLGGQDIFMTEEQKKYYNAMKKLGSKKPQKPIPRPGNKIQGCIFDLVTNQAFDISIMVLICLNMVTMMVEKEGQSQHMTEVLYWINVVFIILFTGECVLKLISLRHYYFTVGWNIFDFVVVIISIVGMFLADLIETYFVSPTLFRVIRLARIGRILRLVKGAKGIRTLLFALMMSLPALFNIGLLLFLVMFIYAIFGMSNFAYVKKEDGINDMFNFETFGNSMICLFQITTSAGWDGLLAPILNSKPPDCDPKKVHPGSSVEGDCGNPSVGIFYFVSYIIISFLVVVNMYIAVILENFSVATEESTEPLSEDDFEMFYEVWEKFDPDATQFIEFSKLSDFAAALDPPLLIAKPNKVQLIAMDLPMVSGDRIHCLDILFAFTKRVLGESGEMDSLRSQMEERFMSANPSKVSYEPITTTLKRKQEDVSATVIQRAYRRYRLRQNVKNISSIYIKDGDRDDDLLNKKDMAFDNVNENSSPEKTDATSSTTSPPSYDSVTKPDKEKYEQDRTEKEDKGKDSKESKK

In the case of `NC(=O)c1cc(C(N)=O)n(-c2cccc(-c3cc(C(F)(F)F)ccc3C(F)(F)F)c2)n1`, the IC50 [1] is reported as 810 nM, the inhibition in vivo at 30 mg/kg (Rattus norvegicus [2]) is reported as 59% and the concentration (Plasma [3]) is reported as 78.2 µM. For the same compound, the Activity (Canis familiaris [4]) was “Non-toxic”, the Activity (Mus musculus [5]) was “Non-toxic” and the inhibition in vivo at 3 mg/kg (Rattus norvegicus [6]) was 30%. For the same compound, the Activity (Canis familiaris [7]) was “Non-toxic”, the Activity (Canis familiaris [8]) was “Non-toxic” and the remaining at 1 h, 10 uM [9] was over 99%. The half-life [10] was 3.1 h, the concentration (Plasma [11]) was 7.3 µM and the Activity (Canis familiaris [12]) was “Non-toxic”. For the same compound, the Activity (Mus musculus [13]) was “Non-toxic”, the Activity (Rattus norvegicus [14]) was -2% and the Activity (Mus musculus [15]) was “Non-toxic”. The concentration at 3.5 h [16] was 31.6 µM, the concentration (Plasma [17]) was 16.2 µM and the Activity (Canis familiaris [18]) was “Non-toxic”. For the same compound, the AUC [19] was 650 µM·h.

Reference: ChEMBL document CHEMBL1629455, “Discovery of a novel class of biphenyl pyrazole sodium channel blockers for treatment of neuropathic pain” (Bioorg Med Chem Lett, 2010)
